Reference: patent US11541132B2, “Radiolabeled compounds” (Hoffmann-La Roche Inc., priority 2017, dated 2023)

Key:
[1] = target: T1, native Aβ aggregates in human AD brain tissue sections (Homo sapiens, UniProt P05067); test: Aβ in vitro displacement assay (selectivity counterscreen, [3H]Example 3 autoradiography); format: binding; conditions: 1 μM compound; 3 nM [3H]Example 3; human AD brain sections; read-out: sel. counterscreen PCT_INHIB AD @ 1 μM (% displacement of [3H]Example 3)
T1 construct: native Aβ aggregates in human AD brain tissue samples; from tissue; host or cells: human AD brain tissue sections
T1 sequence (P05067 672-713 limits assumed): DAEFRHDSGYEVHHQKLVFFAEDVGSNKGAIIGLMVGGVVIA

[2] = target: T2, native aSyn aggregates in A30P transgenic mouse brain sections (Homo sapiens, UniProt P37840, A30P); test: aSyn in vitro displacement assay ([3H]Example-3 autoradiography); format: binding, mutant human aSyn gene); conditions: 1 μM compound; 3 nM [3H]Example-3; A30P transgenic mouse brain sections; read-out: PCT_INHIB A30P @ 1 μM (% displacement of [3H]Example-3)
T2 construct: from tissue; host or cells: brain sections (midbrain and pons as ROI) of A30P transgenic mice, line B6.D2-Tg(Thy1-SNCA*30P)31Pjk

inhibition at 1 µM [1] [%] | inhibition at 1 µM [2] [%] | Structure (SMILES)
98 | 100 | COc1ccc(C(=O)Nc2ccc(N3CCN(c4ccc(F)cc4)CC3)cc2)cc1 [Example 105, N-[4-[4-(4-Fluorophenyl)piperazin-1-yl]phenyl]-4-methoxy-benzamide]
88 | 82 | COc1ccc(C(=O)Nc2ccc(N3CCN(c4ccccn4)CC3)c(F)c2)cc1 [Example 106, N-[3-Fluoro-4-[4-(2-pyridyl)piperazin-1-yl]phenyl]-4-methoxy-benzamide]
96 | 96 | COc1ccc(C(=O)Nc2ccc(N3CCN(c4ccc(C#N)cn4)CC3)c(F)c2)cc1 [Example 107, N-[4-[4-(5-Cyano-2-pyridyl)piperazin-1-yl]-3-fluoro-phenyl]-4-methoxy-benzamide]
92 | 81 | N#Cc1ccc(N2CCN(c3ccc(NC(=O)c4ccc(O)cc4)cc3)CC2)nc1 [Example 108, N-(4-(4-(5-cyanopyridin-2-yl)piperazin-1-yl)phenyl)-4-hydroxybenzamide]
97 | 96 | COc1ccc(C(=O)Nc2ccc(N3CCN(c4ccc(C)cc4)CC3)cc2)cc1 [Example 109, 4-Methoxy-N-[4-[4-(p-tolyl)piperazin-1-yl]phenyl]benzamide]
99 | 99 | COc1ccc(C(=O)Nc2ccc(N3CCN(c4ccc(OC)cc4)CC3)cc2)cc1 [Example 110, 4-Methoxy-N-[4-[4-(4-methoxyphenyl)piperazin-1-yl]phenyl]benzamide]
92 | 94 | COc1ccc(C(=O)Nc2ccc(N3CCN(c4ccc(S(C)(=O)=O)cc4)CC3)cc2)cc1 [Example 111, 4-Methoxy-N-[4-[4-(4-methylsulfonylphenyl)piperazin-1-yl]phenyl]benzamide]
74 | 87 | COc1ccc(C(=O)Nc2ccc(N3CCN(c4ccc(C#N)cc4)CC3)c(C)c2)cc1 [Example 112, N-[4-[4-(4-Cyanophenyl)piperazin-1-yl]-3-methyl-phenyl]-4-methoxy-benzamide]
79 | 87 | COc1ccc(C(=O)Nc2ccc(N3CCN(c4ccc(C#N)cn4)CC3)c(C)c2)cc1 [Example 113, N-[4-[4-(5-Cyano-2-pyridyl)piperazin-1-yl]-3-methyl-phenyl]-4-methoxy-benzamide]
92 | 91 | COc1ccc(C(=O)Nc2ccc(N3CCN(c4ccc(C#N)cc4)CC3)cc2)c(F)c1 [Example 114, N-[4-[4-(4-Cyanophenyl)piperazin-1-yl]phenyl]-2-fluoro-4-methoxy-benzamide]
90 | 87 | COc1ccc(C(=O)Nc2ccc(N3CCN(c4ccc(C#N)cn4)CC3)cc2)c(F)c1 [Example 115, N-[4-[4-(5-Cyano-2-pyridyl)piperazin-1-yl]phenyl]-2-fluoro-4-methoxy-benzamide]
85 | 81 | N#Cc1ccc(N2CCN(c3ccc(NC(=O)c4ccc(OCCF)cc4)cc3)CC2)nc1 [Example 116, N-[4-[4-(5-Cyano-2-pyridyl)piperazin-1-yl]phenyl]-4-(2-fluoroethoxy)benzamide]
88 | 90 | N#Cc1ccc(N2CCN(c3ccc(NC(=O)c4ccc(OCCF)cc4)cc3)CC2)cc1 [Example 117, N-[4-[4-(4-Cyanophenyl)piperazin-1-yl]phenyl]-4-(2-fluoroethoxy)benzamide]
92 | 88 | O=C(Nc1ccc(N2CCN(c3ccccn3)CC2)cc1)c1ccc(OCCF)cc1 [Example 118, 4-(2-Fluoroethoxy)-N-[4-[4-(2-pyridyl)piperazin-1-yl]phenyl]benzamide]
89 | 83 | O=C(Nc1ccc(N2CCN(c3nccs3)CC2)cc1)c1ccc(OCCF)cc1 [Example 119, 4-(2-Fluoroethoxy)-N-[4-(4-thiazol-2-ylpiperazin-1-yl)phenyl]benzamide]
93 | 81 | O=C(Nc1ccc(N2CCN(c3nccs3)CC2)cc1)c1ccc(OCCOCCOCCF)cc1 [Example 120, 4-[2-[2-(2-Fluoroethoxy)ethoxy]ethoxy]-N-[4-(4-thiazol-2-ylpiperazin-1-yl)phenyl]benzamide]
86 | 87 | N#Cc1ccc(N2CCN(c3ccc(NC(=O)c4ccc(OCCOCCF)cc4)cc3)CC2)nc1 [Example 121, N-(4-(4-(5-cyanopyridin-2-yl)piperazin-1-yl)phenyl)-4-(2-(2-fluoroethoxy)ethoxy)benzamide]
85 | 88 | N#Cc1ccc(N2CCN(c3ccc(NC(=O)c4ccc(OCCOCCF)cc4)cc3)CC2)cc1 [Example 122, N-(4-(4-(4-cyanophenyl)piperazin-1-yl)phenyl)-4-(2-(2-fluoroethoxy)ethoxy) benzamide]
95 | 80 | N#Cc1ccc(N2CCN(c3ccc(NC(=O)c4ccc(OCCOCCOCCF)cc4)cc3)CC2)cc1 [Example 123, N-[4-[4-(4-Cyanophenyl)piperazin-1-yl]phenyl]-4-[2-[2-(2-fluoroethoxy)ethoxy]ethoxy]benzamide]
20 | 82 | COc1ccc(C(=O)Nc2ccc(N3C[C@H]4CN(c5ccccn5)C[C@@H]4C3)cc2)cc1 [Example 132, 4-Methoxy-N-(4-((3aS,6aS)-5-(pyridin-2-yl)hexahydropyrrolo[3,4-c]pyrrol-2(1H)-yl)phenyl)benzamide]
84 | 85 | COc1ccc(C(=O)Nc2ccc(N3C[C@@H]4CN(c5ccccn5)C[C@H]4C3)cc2)cc1 [Example 133, 4-Methoxy-N-(4-((3aR,6aR)-5-(pyridin-2-yl)hexahydropyrrolo[3,4-c]pyrrol-2(1H)-yl)phenyl)benzamide]

Second part, the molecule before the results:

Structure (SMILES) | inhibition at 1 µM [1] [%] | inhibition at 1 µM [2] [%]
COc1cccc(C(=O)Nc2ccc(N3CCN(c4ccc(C#N)cn4)CC3)cc2)n1 [Example 91, N-(4-(4-(5-Cyanopyridin-2-yl)piperazin-1-yl)phenyl)-6-methoxypicolinamide] | 54 | 85
N#Cc1ccc(N2CCN(c3ccc(NC(=O)c4ccc(N5CCOCC5)cc4)cc3)CC2)cc1 [Example 92, N-(4-(4-(4-Cyanophenyl)piperazin-1-yl)phenyl)-4-morpholinobenzamide] | 86 | 96
COc1cccc(C(=O)Nc2ccc(N3CCN(c4ccc(C#N)cc4)CC3)cc2)n1 [Example 93, N-(4-(4-(4-Cyanophenyl)piperazin-1-yl)phenyl)-6-methoxypicolinamide] | 89 | 99
O=C(Nc1ccc(N2CCN(c3cccs3)CC2)cc1)c1ccc(N2CCOCC2)cc1 [Example 94, 4-Morpholino-N-(4-(4-(thiophen-2-yl)piperazin-1-yl)phenyl)benzamide] | 93 | 81
COc1ccc(C(=O)Nc2ccc(N3CCN(c4ccc(C#N)cn4)CC3)cn2)cc1 [Example 95, N-(5-(4-(5-Cyanopyridin-2-yl)piperazin-1-yl)pyridin-2-yl)-4-methoxybenzamide] | 95 | 83
COc1ccc(C(=O)Nc2ccc(N3CCN(c4ccc(C#N)cc4)CC3)cn2)cc1 [Example 96, N-(5-(4-(4-Cyanophenyl)piperazin-1-yl)pyridin-2-yl)-4-methoxybenzamide] | 66 | 84
COc1ccc(C(=O)Nc2cnc(N3CCN(c4ccc(C#N)cc4)CC3)nc2)cc1 [Example 97, N-(2-(4-(4-Cyanophenyl)piperazin-1-yl)pyrimidin-5-yl)-4-methoxybenzamide] | 106 | 97
COc1ccc(C(=O)Nc2cnc(N3CCN(c4ccc(C#N)cn4)CC3)nc2)cc1 [Example 98, N-(2-(4-(5-Cyanopyridin-2-yl)piperazin-1-yl)pyrimidin-5-yl)-4-methoxybenzamide] | 86 | 86
N#Cc1ccc(N2CCN(c3ncc(NC(=O)c4ccc(N5CCOCC5)cc4)cn3)CC2)nc1 [Example 99, N-(2-(4-(5-Cyanopyridin-2-yl)piperazin-1-yl)pyrimidin-5-yl)-4-morpholinobenzamide] | 86 | 82
COc1ccc(C(=O)Nc2ccc(N3CCN(c4cccc(C#N)n4)CC3)cc2)cc1 [Example 100, N-[4-[4-(6-Cyano-2-pyridyl)piperazin-1-yl]phenyl]-4-methoxy-benzamide] | 85 | 86
COc1ccc(C(=O)Nc2ccc(N3CCN(c4ccccc4)CC3)cc2)cc1 [Example 101, 4-Methoxy-N-[4-(4-phenylpiperazin-1-yl)phenyl]benzamide] | 99 | 95
COc1ccc(C(=O)Nc2ccc(N3CCN(c4cc(C)ccn4)CC3)cc2)cc1 [Example 102, 4-Methoxy-N-[4-[4-(4-methyl-2-pyridyl)piperazin-1-yl]phenyl]benzamide] | 88 | 89
COc1ccc(C(=O)Nc2ccc(N3CCN(c4cccc(C#N)c4)CC3)cc2)cc1 [Example 103, N-[4-[4-(3-Cyanophenyl)piperazin-1-yl]phenyl]-4-methoxy-benzamide] | 99 | 100
COc1ccc(C(=O)Nc2ccc(N3CCN(c4cccc(F)c4)CC3)cc2)cc1 [Example 104, N-[4-[4-(3-Fluorophenyl)piperazin-1-yl]phenyl]-4-methoxy-benzamide] | 100 | 98
